Reference: article PMC9572083, “Hybrids of 1,4-Quinone with Quinoline Derivatives: Synthesis, Biological Activity, and Molecular Docking with DT-Diaphorase (NQO1)” (Molecules, 2022)

Assays:
HFF-1 cells = experiment: Cytotoxic activity, WST-1 assay, normal fibroblasts HFF-1; format: cell-based; details: Homo sapiens, normal fibroblasts HFF-1, 72 h
From the text: (§1) Anticancer activity of compounds 11–14 was designated against following human cancer cell lines: melanoma (Colo-829), ovarian cancer (SK-OV-3), breast cancer (MDA-MB-231, T47D and MCF-7), lung cancer (A549) and normal fibroblasts (HFF-1). As a reference substance, the doxorubicin was used. The results are presented in Table 1 as IC50, where IC50 means the concentration of tested compounds (µM) causing the growth inhibition of 50% for given tumor cells. The negative value (Neg.) means that the IC50 is higher than 30 µM. Selectivity index (SI) as the ratio of the IC50 for normal fibroblast (HFF-1) to IC50 of the corresponding cell line, is presented in Table S2.
(§2) Compounds 7–14 and doxorubicin were tested for cytotoxic activity in vitro against panel of human cancer cell lines: melanoma (Colo-829, ATCC, Rockville, MD, USA), ovarian cancer (SK-OV-3, ATCC, Rockville, MD, USA), breast cancer (T47D, MCF-7, and MDA-MB-231, ATCC, Rockville, MD, USA) and lung cancer (A549, ATCC, Rockville, MD, USA). The cultured cells were kept at 37 °C and 5% CO2. The cells were seeded (5 × 10^4 cells/well/[…] DMEM supplemented with 10% FCS and streptomycin/penicillin) using 96-well plates (Nunc Thermo Fisher Scientific, Waltham, MA, USA). The tested compounds 7–14 with the concentration of 1–100 µg/mL DMSO were inducted with the cancer cells for 72 h. The WST-1-formazan (proliferation reagent WST-1 assay, Roche Diagnostics, Mannheim, Germany) was detected using a microplate reader at 450 nm. Results were expressed as a mean value of at least three independent experiments performed in triplicate.

T47D cells = experiment: Cytotoxic activity, WST-1 assay, breast cancer T47D; format: cell-based, human; details: for IC50: Homo sapiens, breast cancer T47D, 72 h, WST-1; for SI (IC50 HFF-1/IC50 cancer line) T47D: HFF-1 vs T47D
From the text: as §1, §2

MCF-7 cells = experiment: Cytotoxic activity, WST-1 assay, breast cancer MCF-7; format: cell-based, human; details: for SI (IC50 HFF-1/IC50 cancer line) MCF-7: HFF-1 vs MCF-7; for IC50: Homo sapiens, MCF7, breast cancer MCF-7, 72 h, WST-1
From the text: as §1, §2

A549 cells = experiment: Cytotoxic activity, WST-1 assay, lung cancer A549; format: cell-based, human; details: for SI (IC50 HFF-1/IC50 cancer line) A549: HFF-1 vs A549; for IC50: Homo sapiens, lung cancer A549, 72 h, WST-1
From the text: as §1, §2

Colo-829 cells = experiment: Cytotoxic activity, WST-1 assay, melanoma Colo-829; format: cell-based, human; details: for SI (IC50 HFF-1/IC50 cancer line) Colo-829: HFF-1 vs Colo-829; for IC50: Homo sapiens, melanoma Colo-829, 72 h, WST-1
From the text: as §1, §2

MDA-MB-231 cells = experiment: Cytotoxic activity, WST-1 assay, breast cancer MDA-MB-231; format: cell-based, human; details: for SI (IC50 HFF-1/IC50 cancer line) MDA-MB-231: HFF-1 vs MDA-MB-231; for IC50: Homo sapiens, breast cancer MDA-MB-231, 72 h, WST-1
From the text: as §1, §2

SK-OV-3 cells = experiment: Cytotoxic activity, WST-1 assay, ovarian cancer SK-OV-3; format: cell-based, human; details: for SI (IC50 HFF-1/IC50 cancer line) SK-OV-3: HFF-1 vs SK-OV-3; for IC50: Homo sapiens, ovarian cancer SK-OV-3, 72 h, WST-1
From the text: as §1, §2

[1] = target: T1, NQO1 (DT-diaphorase, EC 1.6.5.5, human recombinant) (Homo sapiens, UniProt P15559); experiment: NQO1 substrate NADPH recycling enzymatic assay; format: biochemical; details: for NQO1 activity (enzymatic conversion rate): compound 10 µmol/L, pH 7.4, 25 °C, absorbance at 340 nm
T1 construct: purchased Sigma-Aldrich
Procedure: The interaction between 1,4-quinone moiety of hybrid and NQO1 protein leads to reduction in quinone to hydroquinone and production of reactive oxide form (ROS). According to a literature method, the ability of hybrids 11–14 and streptonigrin (ST) to be a substrate for NQO1 was examined by measuring the oxidation of NADPH to NADP^+ [29, 32].
Compounds 11–14 (10 µmol/L) were tested as NQO1 substrates using the NADPH recycling assay according to the literature method. The recombinant NQO1 (DT-diaphorase, EC 1.6.5.5, human recombinant, Sigma-Aldrich) was used, and the oxidation of NADPH to NADP^+ was measured at the absorption wavelength of 340 nm on the BioTek 800TS microplate reader (BioKom, Janki, Poland). Compounds were dissolved in dimethyl sulfoxide (2 µL) and added to the 96-well plate. The NQO1 protein (1.4 µg/mL) in 50 mmol/L potassium phosphate buffer (pH = 7.4) was added to each well (198 µL) (Nunc Thermo Fisher Scientific, Waltham, MA, USA). Once the 96-well plate was filled with the assay solutions, except the NADPH solution, it was placed into the instrument and left to sit for 5 min before starting the measurements. The enzymatic reaction was initiated by automatically dispensing the NADPH solution into the wells, and data were recorded at 10 s intervals for 5 min at 25 °C. The linear part of the absorbance vs. time graphs (the first 20 s to 1 min) was fitted, and the slopes were calculated. NADPH oxidation rates were compared with reactions lacking the tested compound. Initial velocities were calculated, and data were expressed as µmol NADPH/µmol NQO1/min. All reactions were carried out at least in triplicate.

T1 sequence (P15559 whole entry): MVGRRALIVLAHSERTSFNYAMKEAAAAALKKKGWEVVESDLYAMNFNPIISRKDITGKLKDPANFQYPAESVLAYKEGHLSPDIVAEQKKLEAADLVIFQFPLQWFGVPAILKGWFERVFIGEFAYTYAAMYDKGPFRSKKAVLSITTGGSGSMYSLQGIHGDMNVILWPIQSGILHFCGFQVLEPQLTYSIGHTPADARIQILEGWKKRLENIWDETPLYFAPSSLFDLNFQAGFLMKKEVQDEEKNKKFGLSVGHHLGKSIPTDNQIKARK

Row | SMILES | IC50 (HFF-1 cells) | IC50 (T47D cells) | SI (IC50 HFF-1/IC50 cancer line) MCF-7 (MCF-7 cells) | IC50 (MCF-7 cells) | SI (IC50 HFF-1/IC50 cancer line) A549 (A549 cells) | IC50 (A549 cells) | SI (IC50 HFF-1/IC50 cancer line) Colo-829 (Colo-829 cells) | IC50 (Colo-829 cells) | SI (IC50 HFF-1/IC50 cancer line) MDA-MB-231 (MDA-MB-231 cells) | IC50 (MDA-MB-231 cells) | SI (IC50 HFF-1/IC50 cancer line) SK-OV-3 (SK-OV-3 cells) | IC50 (SK-OV-3 cells) | NQO1 activity (enzymatic conversion rate) [1] | NQO1 activity (enzymatic conversion rate) ([1]; listed as streptonigrin) | SI (IC50 HFF-1/IC50 cancer line) T47D (T47D cells) | Activity against MCF-7 relative to A549 (MCF-7 cells; fold more active against MCF-7 than A549) | Enzymatic conversion rate relative to the 2-methyl-5,8-quinolinedione analogue ([1]; 11c vs 12c, 11e vs 12e)
1 | O=C1C(Cl)=C(Oc2cccc3ccc(N4CCCC4)nc23)C(=O)c2cnccc21 [Compound 13e, 6-chloro-7-{[2-(pyrrolidin-1-yl)quinolin-8-yl]oxy}isoquinoline-5,8-dione] | 15.5 ± 0.72 µM | > 30 µM | 0.92 | 16.9 ± 0.5 µM | 1.11 | 14 ± 0.26 µM | 0.79 | 19.6 ± 1.32 µM | 0.93 | 16.6 ± 0.38 µM | 0.98 | 15.8 ± 0.26 µM | 214 ± 21 µmol NADPH/µmol NQO1/min |  |  |  | 
2 | O=C1C(Cl)=C(Oc2cccc3ccc(N4CCOCC4)nc23)C(=O)c2ccccc21 [Compound 14f, 2-chloro-3-{[2-(morpholin-4-yl)quinolin-8-yl]oxy}naphthalene-1,4-dione] | 20.3 ± 0.87 µM | > 30 µM |  | 17.4 ± 1.02 µM |  | 14 ± 0.86 µM |  | 11.3 ± 1.97 µM |  | 2.35 ± 0.09 µM |  | 14.2 ± 0.76 µM | 87 ± 15 µmol NADPH/µmol NQO1/min |  |  |  | 
3 | COC1=C(N)C(=O)c2nc(-c3nc(C(=O)O)c(C)c(-c4ccc(OC)c(OC)c4O)c3N)ccc2C1=O [ST, streptonigrin, reference compound] |  |  |  |  |  |  |  |  |  |  |  |  | 725 ± 84 µmol NADPH/µmol NQO1/min | 725 µmol NADPH/µmol NQO1/min |  |  | 
4 | Cc1ccc2c(n1)C(=O)C(Oc1cccc3ccc(N4CCCC4)nc13)=C(Cl)C2=O [Compound 12e, 6-chloro-2-methyl-7-{[2-(pyrrolidin-1-yl)quinolin-8-yl]oxy}quinoline-5,8-dione] | 17.6 ± 1.05 µM | 17.4 ± 1.3 µM | 9.29 | 1.89 ± 0.23 µM | 1.16 | 15.1 ± 0.39 µM | 11.48 | 1.53 ± 0.08 µM | 11.71 | 1.5 ± 0.15 µM | 16.72 | 1.05 ± 0.06 µM | 600 ± 35 µmol NADPH/µmol NQO1/min |  | 1.01 |  | 
5 | O=C1C(Cl)=C(Oc2cccc3ccc(N4CCCC4)nc23)C(=O)c2ncccc21 [Compound 11e, 6-chloro-7-{[2-(pyrrolidin-1-yl)quinolin-8-yl]oxy}quinoline-5,8-dione] | 11.5 ± 0.69 µM | 20.8 ± 1.03 µM | 5.64 | 2.03 ± 0.03 µM | 0.94 | 12.1 ± 1.06 µM | 0.76 | 15 ± 0.32 µM | 5.81 | 1.97 ± 0.13 µM | 6.66 | 1.72 ± 0.09 µM | 1082 ± 51 µmol NADPH/µmol NQO1/min |  | 0.55 | ~6 times | 1.8 times
6 | COc1cccc2c1C(=O)c1c(O)c3c(c(O)c1C2=O)C[C@@](O)(C(=O)CO)C[C@@H]3O[C@H]1C[C@H](N)[C@H](O)[C@H](C)O1 [Doxorubicin, doxorubicin, reference compound] | 0.12 ± 0.03 µM | 0.04 ± 0.01 µM | 1.00 | 0.12 ± 0.05 µM | 6.00 | 0.02 ± 0.01 µM | 2.40 | 0.05 ± 0.01 µM | 0.19 | 0.64 ± 0.06 µM | 0.80 | 0.15 ± 0.03 µM |  |  | 3.00 |  | 
